Holding throughout (test): Seedling stage sealing experiment for water-seeding
Holding throughout (type): in vivo

The subject of one test is Echinochloa crusgalli. The note with it: 120 g a.i./ha, seedling stage sealing, 15 days, fresh weight control rate.
A further test deals with Echinochloa phyllopogon. The note with it: 120 g a.i./ha, seedling stage sealing, 15 days, fresh weight control rate. The method in brief:
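Scores (0 = no effect to 9 = dead) reflect fresh-weight control rate 15 days after spray application in greenhouse at 15, 30, 60 or 120 g a.i./ha, mean of three replicates. Seeds were broadcast and soil-covered in pots held moist in water-filled cultivation boxes.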

For another test, the system named is Leptochloa chinensis. As to conditions: 120 g a.i./ha, 15 days, fresh weight control rate. The text has this: (1) Seedling Stage Sealing Experiment for Water-Seeding:
The activity level criteria for plant damage (i.e., growth control rate) are as follows: • Level 9: completely dead; • Level 8: growth control rate greater than or equal to 90% and less than 100%; • Level 7: growth control rate greater than or equal to 80% and less than 90%; • Level 6: growth control rate greater than or equal to 70% and less than 80%; • Level 5: growth control rate greater than or equal to 50% and less than 70%; • Level 4: growth control rate greater than or equal to 30% and less than 50%; • Level 3: growth control rate greater than or equal to 20% and less than 30%; • Level 2: growth control rate greater than or equal to 10% and less than 20%; • Level 1: growth control rate less than 10%; • Level 0: no effect.
The above growth control rates are fresh weight control rates.
Echinochloa phyllopogon, Digitaria sanguinalis, Huaidao (rice cultivar), etc. were broadcasted on the surface of nutrition bowls filled with soil and fully covered by soil. The foregoing well-prepared nutrition bowls were then placed in a cultivation box with water filled to a suitable height to keep the soil in the nutrition bowls moist. A test compound of the present invention was individually dissolved with acetone, then diluted into solution of a certain concentration using a certain amount of water, and sprayed using a spray tower. The plants were placed on a greenhouse seedbed and cultured for 15 days, and the experimental results were then collected. The compound was applied at 120, 60, 30 and 15 g a.i./ha in triplicate, and the results were averaged.

Consider ten compounds from patent US20260223850A1, “SUBSTITUTED PYRROLIDONE COMPOUND, PREPARATION METHOD THEREFOR, COMPOSITION AND APPLICATION THEREOF” (QINGDAO KINGAGROOT CHEMICAL COMPOUND CO., LTD., priority 2023, published 2026).

The structures appear in SMILES notation.

`CN1C[C@H](c2ccc(F)c(Cl)c2)[C@@H](C(=O)Nc2c(O)nn(C)c2F)C1=O` [311′]: the “Echinochloa crusgalli activity level (growth control rate)” value (from here on “Echinochloa crusgalli activity level”) in the test on Echinochloa crusgalli is 9. For the same compound, the “Echinochloa phyllopogon activity level (growth control rate)” value (“Echinochloa phyllopogon activity level” below) in the test with Echinochloa phyllopogon is 8 (Level 8: growth control rate greater than or equal to 90% and less than 100%). Further, in the test on Leptochloa chinensis, the “Leptochloa chinensis activity level (growth control rate)” value (“Leptochloa chinensis activity level” for short) was 9.

Turning to `CN1C[C@H](c2ccc(C(F)(F)F)c(F)c2)[C@@H](C(=O)Nc2cnn(C)c2Cl)C1=O` [315′], in the test on Echinochloa crusgalli, the “Echinochloa crusgalli activity level” value came to 9. In addition, in the test with Echinochloa phyllopogon, the “Echinochloa phyllopogon activity level” value is 8 (Level 8: growth control rate greater than or equal to 90% and less than 100%). Moreover, the “Leptochloa chinensis activity level” value in the test on Leptochloa chinensis was determined as 9.

Regarding `CC(C)Oc1cc([C@H]2CN(C)C(=O)[C@@H]2C(=O)Nc2cnn(C)c2Cl)ccc1F` [318′], the “Echinochloa crusgalli activity level” value in the test with Echinochloa crusgalli turned out to be 9. Further, the “Echinochloa phyllopogon activity level” value with Echinochloa phyllopogon was 8 (Level 8: growth control rate greater than or equal to 90% and less than 100%). The “Leptochloa chinensis activity level” value in the test on Leptochloa chinensis was 8 (Level 8: growth control rate greater than or equal to 90% and less than 100%).

For the compound `COc1cc([C@H]2CN(C)C(=O)[C@@H]2C(=O)Nc2cnn(C)c2Cl)ccc1Cl` [319′], the “Echinochloa crusgalli activity level” value with Echinochloa crusgalli was 5 (Level 5: growth control rate greater than or equal to 50% and less than 70%). Further, the “Echinochloa phyllopogon activity level” value in the test with Echinochloa phyllopogon is 5 (Level 5: growth control rate greater than or equal to 50% and less than 70%). The “Leptochloa chinensis activity level” value with Leptochloa chinensis is 6 (Level 6: growth control rate greater than or equal to 70% and less than 80%).

For the compound `COc1cc([C@H]2CN(C)C(=O)[C@@H]2C(=O)Nc2cnn(C)c2Cl)ccc1C` [321′], the “Echinochloa crusgalli activity level” value with Echinochloa crusgalli is recorded as 9. Also, the “Echinochloa phyllopogon activity level” value with Echinochloa phyllopogon was 6 (Level 6: growth control rate greater than or equal to 70% and less than 80%). In addition, in the test with Leptochloa chinensis, the “Leptochloa chinensis activity level” value is 7 (Level 7: growth control rate greater than or equal to 80% and less than 90%).

For `CN1C[C@H](c2ccc3ccccc3c2)[C@@H](C(=O)Nc2cnn(C)c2Cl)C1=O` [353′], the “Echinochloa crusgalli activity level” value in the test with Echinochloa crusgalli is 9. Besides, the “Echinochloa phyllopogon activity level” value in the test on Echinochloa phyllopogon was 7 (Level 7: growth control rate greater than or equal to 80% and less than 90%). For the same compound, in the test on Leptochloa chinensis, the “Leptochloa chinensis activity level” value was 9.

As to `CN1CC(c2cccc(Cl)c2)C(C(=O)Nc2cnn(C)c2Cl)C1=O` (stereo not drawn) [Compound 16], the “Echinochloa crusgalli activity level” value with Echinochloa crusgalli was 6 (Level 6: growth control rate greater than or equal to 70% and less than 80%). The “Echinochloa phyllopogon activity level” value in the test with Echinochloa phyllopogon was 5 (Level 5: growth control rate greater than or equal to 50% and less than 70%). Further, the “Leptochloa chinensis activity level” value in the test on Leptochloa chinensis is 9.

For `C=CCc1cccc(C2CN(C)C(=O)C2C(=O)Nc2cnn(C)c2Cl)c1` (stereo not drawn) [Compound 24], the “Echinochloa crusgalli activity level” value in the test on Echinochloa crusgalli came out at 9. Further, the “Echinochloa phyllopogon activity level” value with Echinochloa phyllopogon is 8 (Level 8: growth control rate greater than or equal to 90% and less than 100%). Further, the “Leptochloa chinensis activity level” value in the test on Leptochloa chinensis is 9.

Consider `CN1CC(c2cccc(OC(F)(F)F)c2)C(C(=O)Nc2cnn(C)c2Cl)C1=O` (stereo not drawn) [Compound 33], for which the “Echinochloa crusgalli activity level” value with Echinochloa crusgalli stood at 9. Further, the “Echinochloa phyllopogon activity level” value with Echinochloa phyllopogon is 5 (Level 5: growth control rate greater than or equal to 50% and less than 70%). Also, the “Leptochloa chinensis activity level” value in the test with Leptochloa chinensis worked out at 9.

On to `CN1CC(c2cc(F)cc(C(F)(F)F)c2)C(C(=O)Nc2cnn(C)c2Cl)C1=O` (stereo not drawn) [Compound 67], for which the “Echinochloa crusgalli activity level” value with Echinochloa crusgalli worked out at 9. Further, the “Echinochloa phyllopogon activity level” value in the test on Echinochloa phyllopogon was 6 (Level 6: growth control rate greater than or equal to 70% and less than 80%). Besides, the “Leptochloa chinensis activity level” value in the test on Leptochloa chinensis is given as 9.
